The numbers were not newly measured in EP2343054A1, “Pellets and microparticles of pravastatin sodium and a process of making them” (LEK Pharmaceuticals d.d., priority 2010, dated 2011), which cites them from elsewhere.

For data set [1] the following is noted: pH of 7.0.
The conditions of data set [2]: pH 3 or less, as found in the stomach.

Consider `CC[C@H](C)C(=O)O[C@H]1C[C@H](O)C=C2C=C[C@H](C)[C@H](CC[C@@H](O)C[C@@H](O)CC(=O)O)[C@H]21` [Pravastatin sodium], for which, in data set [1], the “partition coefficient (octanol/water)” value is listed as 0.23. Besides, the “stability at low pH” value in data set [2] is given as “very unstable”.
As for `CC[C@H](C)C(=O)O[C@H]1C[C@H](O)C=C2C=C[C@H](C)[C@H](CC[C@@H](O)C[C@@H](O)CC(=O)O)[C@H]21` [pravastatin, (+)-(3R, 5R) -3,5-dihydroxy-7-[(1 S, 2S, 6S, 8S, 8aR)-6-hydroxy-2-methyl-8-[(S)-2-methylbutyryloxy]-1,2,6,7,8,8a-hexahydro-1-naphthyl] heptanoate], the average oral absorption is recorded as 34%. Besides, the absolute bioavailability (oral) is listed as 17%.
